# Test results: patent US20130344106A1, “Methods and Compositions for Improving Immune Response by a Nutraceutical Antioxidant” (priority 2008, published 2013)
# “Also recorded” adds a separate entry of the source.
# Tests used:
# BALB/c mice = settings: orally administered 1.6 g/kg, Senaldi et al.; cited from earlier work
# OXA-treated BALB/c mice = settings: Särnstrand et al.; cited from earlier work
# BM-DCs from old mice = test: CHS response by adoptive transfer of DNBS-pulsed BM-DCs treated ex vivo; format: in vivo, mouse; settings: DNFB challenge of young recipients
# Experimental: For sensitization (day 0), 0.5×10^6 DNBS-treated DCs were injected subcutaneously with 100 μL of saline into the flanks of recipient mice. Five days later, mice were challenged by means of DNFB application to the ear. Mice injected with the same number of unmodified DCs or mock treated and challenged with vehicle alone served as negative controls.
# CD11c+ BM-DCs = test: MBB staining and flow cytometry of cellular thiol in BM-DCs; settings: P<0.05
# cellular proteins = settings: NAC at the time of TNCB sensitization; Bruchhausen et al.; cited from earlier work
# [1] = SFN administration by gavage
# Experimental: (§1) Young (2-4 months) and old (19-22 mouths) female C57BL/6 (B6) mice were obtained from the Jackson Laboratory and the National Institute of Aging colony (Bethesda, Md.), respectively. Nrf2^+/+ and nrf2^−/− mice, which were initially obtained from Dr. Y. Kan (Chan and Kan, Proc Natl Acad Sci USA, 96:1231-6 (1997)), were backcrossed onto a C57BL/6 background for 7 generations.
# (§2) SFN (9 μmol/d per mouse) in 0.2 mL, of corn oil was administered by means of gavage on consecutive days. The control group received corn oil alone. Pretreatment with SFN or corn oil commenced 5 days before and was carried through until the performance of the antigen challenge (i.e., 11 days total).
# γ-GCLS mRNA = settings: BM-DCs from old animals; SFN 5 μmol/L for 24 hours; P<0.05
# Experimental: (§3) FIG. 9. […] A. Total RNA was extracted from CD11c^+ BM-DCs to perform real-time PCR for p2E.
# (§4) Total RNA was extracted from DCs or tissues by using the RNeasy Mini Kit (Qiagen, Inc, Valencia, Calif.), according to the manufacturer's recommendations. Contaminating DNA was removed with a DNA-free kit (Ambion, Inc, Austin, Tex.). Total RNA was spectrophotometrically quantitated. A 1 μg RNA sample was reverse transcribed by using the iScriptTMcDNA Synthesis Kit (Bio-Rad Laboratories, Hercules, Calif.). The cDNA templates were stored at −40° C.
# (§5) PCR was carried out with an iQTM SYBR Green Supermix (Bio-Rad Laboratories) by using an iCycler (Bio-Rad Laboratories), according to the manufacturer's instructions. The sequences for the primers for IFN-γ, IL-4, T-bet, heme oxygenase 1, Nrf2, NQO1, glutathione S-transferase, GCLS, GPx, and β-actin are summarized in Table 1. The final PCR mixture contained 1 μL of cDNA template and 400 nM of the forward and reverse primers in a final volume of 25 μL. Samples were run concurrently with a standard curve prepared from the PCR products. Serial dilutions were performed to obtain appropriate template concentrations. B-Actin was used as a reference gene for the recovery of RNA, as well as reverse transcription efficiency. Melting curve analysis was used to confirm specific replicon formation.
# NQO1 mRNA = settings: BM-DCs from old animals; SFN 5 μmol/L for 24 hours; P<0.001
# Experimental: as §3, §4, §5
# heme oxygenase 1 mRNA = settings: BM-DCs from old animals; SFN 5 μmol/L for 24 hours; P<0.05
# Experimental: as §3, §4, §5
# GATA-3 = settings: SFN gavage; DNFB challenge
# Experimental: (§6) IFN-γ and IL-4 message levels were measured in the ear tissues that were taken 48 hours after challenge to determine whether the induction of the CHS response is accompanied by polarized T cell differentiation.
# [2] = system: p2Es (NQO1, glutathione S-transferase, γ-GCLS, and GPx) mRNA; settings: SFN administration versus livers of control animals
# Experimental: as §2, §4
# as §5, with “B-Actin was used as a reference gene for the recovery of RNA, as well as reverse transcription efficiency. Melting curve analysis was used to confirm specific replicon formation.” left out
# [3] = system: old female C57BL/6 (B6) mice; settings: SFN gavage
# Excerpt: as §1
# Oxazalone (OXA; 3%), dissolved in 100% ethanol, was applied on the shaved mouse abdomen on day 0. Control animals were exposed to vehicle alone. Six days after sensitization, mice were challenged on both sides of both ears by means of epicutaneous application of 20 μL of a 1% OXA solution (Gaspari and Katz, Current Protocols in immunology, John Wiley & Sons (Hoboken, N.J., 2003)). 2,4-Dinitro-1-fluambenzene (DNFB) sensitization was accomplished by the application of 0.5% of the chemical dissolved in 4:1 acetone/olive oil onto the shaved abdomen (days 0 and 1). On day 5, mice were challenged by means of epicutaneous application of 0.2% DNFB on both ears. Ear thickness was measured before and 24 and 48 hours after challenge by using a dial thickness gauge (Mitutoyo, Japan). Mice were killed 48 hours after challenge, and ear tissues were removed for RNA extraction and cytokine message expression, as well as for hematoxylin and eosin staining. […]
# [4] = system: Nrf2-mediated phase II enzyme (p2E) gene expression; settings: absent in Nrf2-deficient animals; recent studies; cited from earlier work
# IFN-γ mRNA = settings: old mice; SFN gavage; 48 hours after DNFB challenge
# Experimental: (§7) Oxazalone (OXA; 3%), dissolved in 100% ethanol, was applied on the shaved mouse abdomen on day 0. Control animals were exposed to vehicle alone. Six days after sensitization, mice were challenged on both sides of both ears by means of epicutaneous application of 20 μL of a 1% OXA solution (Gaspari and Katz, Current Protocols in immunology, John Wiley & Sons (Hoboken, N.J., 2003)). 2,4-Dinitro-1-fluambenzene (DNFB) sensitization was accomplished by the application of 0.5% of the chemical dissolved in 4:1 acetone/olive oil onto the shaved abdomen (days 0 and 1). On day 5, mice were challenged by means of epicutaneous application of 0.2% DNFB on both ears. Ear thickness was measured before and 24 and 48 hours after challenge by using a dial thickness gauge (Mitutoyo, Japan). Mice were killed 48 hours after challenge, and ear tissues were removed for RNA extraction and cytokine message expression, as well as for hematoxylin and eosin staining.
# as §4
# (§8) PCR was carried out with an iQTM SYBR Green Supermix (Bio-Rad Laboratories) by using an iCycler (Bio-Rad Laboratories), according to the manufacturer's instructions. The sequences for the primers for IFN-γ, IL-4, T-bet, heme oxygenase 1, Nrf2, NQO1, glutathione S-transferase, GCLS, GPx, and β-actin are summarized in Table 1. The final PCR mixture contained 1 μL of cDNA template and 400 nM of the forward and reverse primers in a final volume of 25 μL. […]
# as §6
# T-bet mRNA = settings: old versus young sensitized animals; SFN gavage; DNFB challenge
# Experimental: as §7, §4, §8, §6
# IL-4 mRNA = settings: old mice; SFN gavage; 48 hours after DNFB challenge
# Experimental: as §7, §4, §8, §6
# Nrf2 = settings: old rats; cited from earlier work
smiles,measurement,setting,value
"CC(=O)N[C@@H](CS)C(=O)O [NAC, N-acetylcysteine]",TNCB response,BALB/c mice,reduced the TNCB response
same,ear thickness,OXA-treated BALB/c mice,dose-dependent increase
same,CHS response in recipients of DNBS-pulsed DCs from old animals,"BM-DCs from old mice; ex vivo NAC treatment of BM-DCs (20 mM for 1 hour), washed",restored the CHS response; also recorded: increases the CHS response; also recorded: reverses the age-related decrease in the CHS response
same,increase in cellular thiol content (MBB staining),"CD11c+ BM-DCs; BM-DCs, NAC exposure (FIG. 8: 20 mmol/L for 24 hours)",25%
same,binding of the contact sensitizer TNCB to cellular proteins,cellular proteins,block the binding
"C[S+]([O-])CCCCN=C=S (centres unmarked) [SFN, sulforaphane]",effects on overall well-being or body weight,[1],Neither the CHS procedure nor SFN administration had any effects
same,γ-GCLS mRNA level,γ-GCLS mRNA,significant upregulation
same,NQO1 mRNA level,NQO1 mRNA,significant upregulation
same,heme oxygenase 1 mRNA level,heme oxygenase 1 mRNA,significant upregulation
same,expression of GATA-3,GATA-3,Neither aging nor SFN treatment had an effect
same,"p2E mRNA levels in liver (NQO1, glutathione S-transferase, γ-GCLS, GPx)",[2],message levels for 3 of the 4 genes were increased
same,CHS response in recipients of DNBS-pulsed DCs from old animals,BM-DCs from old mice; ex vivo SFN treatment of BM-DCs (5 μM for 24 hours),could restore the CHS response; also recorded: reverses the age-related decrease in the CHS response
same,ear-swelling response in nonsensitized (control) animals,[3]; nonsensitized control animals,no effect
same,decrease in lymphocyte infiltration and intercellular edema in ear (hematoxylin and eosin),"[3]; old mice, ear histology 48 hours after challenge",could be reversed
same,Nrf2-mediated phase II enzyme (p2E) gene expression,[4],significantly activates
same,increase in cellular thiol levels (MBB staining),"CD11c+ BM-DCs; BM-DCs from old animals, SFN 5 μmol/L for 24 hours",15%
same,IFN-γ message level in ear tissue,IFN-γ mRNA,significantly increased
same,T-bet message level in ear tissue,T-bet mRNA,prevented this decrease to a significant degree
same,IL-4 message level in ear tissue,IL-4 mRNA,not significantly affected
O=C(O)CCCCC1CCSS1 (stereo not drawn) [α-lipoic acid],"nuclear Nrf2 levels, γ-CLC expression and GSH production",Nrf2,increase nuclear Nrf2 levels in parallel with increased γ-CLC expression and GSH production
